Consider one compound from publication PMC4667271, “Discovery of a Novel Inhibitor of the Protein Tyrosine Phosphatase Shp2” (Scientific Reports, 2015).

For test [1], the target named is T1, Shp2 (Homo sapiens, UniProt Q06124).
T1 sequence (Q06124 1-593): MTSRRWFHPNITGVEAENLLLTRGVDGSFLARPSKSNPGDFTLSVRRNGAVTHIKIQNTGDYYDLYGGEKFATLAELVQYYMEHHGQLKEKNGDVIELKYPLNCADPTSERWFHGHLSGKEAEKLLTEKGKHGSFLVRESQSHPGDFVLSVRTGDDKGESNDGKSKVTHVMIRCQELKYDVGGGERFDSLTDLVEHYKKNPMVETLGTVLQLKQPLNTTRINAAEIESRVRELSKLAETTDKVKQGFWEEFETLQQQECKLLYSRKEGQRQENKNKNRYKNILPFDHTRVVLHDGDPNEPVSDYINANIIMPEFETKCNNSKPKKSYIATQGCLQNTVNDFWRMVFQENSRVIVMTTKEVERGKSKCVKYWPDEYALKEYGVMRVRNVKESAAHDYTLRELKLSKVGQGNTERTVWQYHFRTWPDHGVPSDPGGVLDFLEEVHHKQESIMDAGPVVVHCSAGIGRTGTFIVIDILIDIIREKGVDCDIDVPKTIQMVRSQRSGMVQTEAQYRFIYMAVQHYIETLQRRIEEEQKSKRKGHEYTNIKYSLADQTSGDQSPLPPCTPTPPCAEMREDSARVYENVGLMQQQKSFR
Kind of test: Kinetic analysis of Shp2 inhibition (Michaelis-Menten, Lineweaver-Burk). Format: biochemical. As to the method: In order to determine the nature of the inhibition, the phosphtase activity of Shp2 was assessed in the presence of increasing concentrations of Fumos. […] Since irreversible inhibitors generally show similar variation trend with non-competitive inhibitors in Lineweaver-Burk plot, next we investigated if the inhibition of Shp2 by Fumos is reversible. Unlike an irreversible inhibitor, a reversible inhibitor can dissociate from the enzyme. […] inhibition can be completely reversed by adding more substrates so that it reaches a much higher concentration than that of the inhibitor[31][32]. After incubation of the mixture containing Fumos and Shp2, we added 40-fold of normal amount of substrates. Sodium orthovanadate, a commonly used competitive inhibitor for PTPs, was used as a control.
The assay was set in wells of 96-well plate with a final volume of 100 μl of reaction mixture containing 10 mM of NaAc-HAc, 1 mM of ethylene diamine tetraacetic acid, 1 mM of DL-dithiothreitol and 2% of dimethyl sulfoxide, pH 5.5. Activity of the enzyme was assayed by incubating recombinant PTP protein or mutant PTP with various concentrations of Fumos in the mixture at 37 °C for 30 min. Absorbance at 405 nm was detected immediately after addition of varied concentrations of substrate, p-nitrophenyl phosphate (pNPP) to each corresponding well.

Test [2] concerns phosphorylation of AKT and GSK3β. Nature of the test: EGF-induced AKT activation, Western blot. Format: cell-based. The settings on record: 10-40 μM for 24 h, EGF 20 ng/ml 5 min. An excerpt: Figure 4 Fumos doesn’t inhibit EGF-induced AKT activation. Fumos doesn’t inhibit EGF-induced AKT activation. […] DMSO treatment as control. Western blotting analysis for p-AKT, AKT, p-GSK3β and GSK3β.
After centrifugation, the supernatant was collected.

Test [3] relates to MDA-MB-231 cells. Nature of the test: Transwell invasion assay, MDA-MB-231. Format: cell-based, human. The conditions noted are these: 4 and 14 μM, 24 h, EGF in lower chamber. As to the method:
The invasion assay was performed in Transwell chambers according to Corning methods. Briefly, the upper chamber of a Transwell insert ([…] pore size) was coated with 40 μl 1:6 mixture of Matrigel (BD Biosciences, Bedford): Opti-MEM (Invitrogen) for MDA-MB-231 and 40 μl 1:12 mixture of Matrigel: Opti-MEM (Invitrogen) for HeLa cells and dried for 2 h at 37 °C. The lower chamber was filled with serum-free media containing 10 ng/ml EGF. Cells were seeded into upper chamber at a density 5 × 10^4 cells/ml per well in serum-free media. Cells were treated with series concentrations of Fumos for 24 h. The top aspect of the membrane was gently swabbed the inside of each insert using cotton swabs, and cells that invaded on the lower surface of the membrane were fixed using methanol and stained with crystal violet (Beyotime Institute of Biotechnology). Random fields were counted and photographed by microscope (Olympus).

The subject of test [4] is PMA-induced ERK1/2 phosphorylation. Kind of test: PMA-induced ERK1/2 activation, Western blot. The settings on record: pretreated 24 h, 100 nM PMA 5 min; even at highest concentration tested.
Description: Cells were pretreated with increasing concentrations of Fumos for 24 h, and then stimulated with 100 nM PMA for 5 min. DMSO treatment as control. ERK1/2 activation was analyzed by Western-Blot with antibodies to phosphorylated ERK1/2 (pERK) or ERK1/2. GAPDH is used as a loading control for Western Blot. The control treatment is not induced by PMA.
Cells were seeded in a culture bottle at 37 °C, under 5% CO2 and 95% air. […] Then cells were collected and dissolved in the lysis buffer (50 mM Hepes-NaOH, 100 mM NaCl, 0.5%NP-40, 2.5 mM EDTA, 10% glycerol, 1 mM DTT, 1 mM PMSF, 0.7 μl/ml pepstatin, 0.5 μg/ml leupetin, 2 μg/ml aprotinin). Cell lysates were centrifuged at 4 °C with the speed of 10,000 g for 15 min. After centrifugation, the supernatant was collected. 30 μg proteins were loaded on SDS-PAGE. After electrophoresis, proteins were transferred onto PVDF meber, and immunobloted with specific antibodies, and visualized using ECL reagent. Each membrane was stripped and reprobed with anti-GAPDH antibody to ensure equal protein loading. The bands were densitometrically scanned and analyzed using a BIO-RAD Gel Analysis System.

As usually defined, the Km is the substrate concentration at which the rate is half of its maximum. As to `CC[C@@H](C)C[C@@H](C)/C=C(C)/C=C/C=C/C=C(\C)C(=O)c1c(O)c(-c2ccc(O)cc2)cn(O)c1=O` [Fumos, Fumosorinone], the Vmax in test [1] (4 μM fumosorinone, substrate pNPP) was 7.63 ± 0.42 S^−1. In test [1] (8 μM fumosorinone, substrate pNPP), the Vmax came out at 2.73 ± 0.41 S^−1. Also, in test [1] (Lineweaver-Burk analysis), the type of inhibition result is recorded as “classic noncompetitive inhibitor”. Besides, the Km in test [1] (substrate pNPP, fit over 0, 4 and 8 μM fumosorinone) was 6.75 ± 0.84 mM. Also, in test [2], the “EGF-induced phosphorylation of AKT” value is reported as “did not inhibit” and the “EGF-induced phosphorylation of GSK3β” value is “did not inhibit”. Further, the “cell invasion (Transwell)” value in test [3] is on record as “significantly inhibited”. Moreover, in test [4], the “PMA-induced ERK1/2 phosphorylation” value is given as “did not inhibit”.
